{
  "source": "patent US20090136979A1",
  "about": "“Class IIA Histone Deacetylase (HDAC) Substrate” (ISTITUTO DI RICERCHE DI BIOLOGIA MOLECOLARE P. ANG, priority 2005, published 2009)",
  "key": {"HDAC4-FLAG [1]": {"tested_on": "HDAC4-FLAG", "test": "Enzymatic activity of HDAC4-FLAG, inhibition (Biomol assay kit and histone substrates)", "type": "biochemical", "conditions": "FIG. 2"}, "HDAC from rat liver": {"tested_on": "HDAC from rat liver", "conditions": "cited from earlier work"}, "HDAC3": {"biological_target": "HDAC3 (Homo sapiens, UniProt O15379)", "sequence (O15379 whole entry)": "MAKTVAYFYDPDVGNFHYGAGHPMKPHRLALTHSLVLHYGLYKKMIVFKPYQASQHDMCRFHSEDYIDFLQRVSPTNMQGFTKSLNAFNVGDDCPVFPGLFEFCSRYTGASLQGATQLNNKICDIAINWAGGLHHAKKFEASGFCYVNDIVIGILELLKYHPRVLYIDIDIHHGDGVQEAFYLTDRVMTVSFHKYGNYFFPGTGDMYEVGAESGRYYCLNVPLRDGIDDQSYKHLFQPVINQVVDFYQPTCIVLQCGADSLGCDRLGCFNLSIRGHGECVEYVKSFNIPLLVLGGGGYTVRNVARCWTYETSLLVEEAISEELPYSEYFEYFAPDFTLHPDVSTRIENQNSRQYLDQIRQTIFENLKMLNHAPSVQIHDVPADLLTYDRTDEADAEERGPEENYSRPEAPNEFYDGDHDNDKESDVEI", "sequence (Q9Y618 whole entry partner)": "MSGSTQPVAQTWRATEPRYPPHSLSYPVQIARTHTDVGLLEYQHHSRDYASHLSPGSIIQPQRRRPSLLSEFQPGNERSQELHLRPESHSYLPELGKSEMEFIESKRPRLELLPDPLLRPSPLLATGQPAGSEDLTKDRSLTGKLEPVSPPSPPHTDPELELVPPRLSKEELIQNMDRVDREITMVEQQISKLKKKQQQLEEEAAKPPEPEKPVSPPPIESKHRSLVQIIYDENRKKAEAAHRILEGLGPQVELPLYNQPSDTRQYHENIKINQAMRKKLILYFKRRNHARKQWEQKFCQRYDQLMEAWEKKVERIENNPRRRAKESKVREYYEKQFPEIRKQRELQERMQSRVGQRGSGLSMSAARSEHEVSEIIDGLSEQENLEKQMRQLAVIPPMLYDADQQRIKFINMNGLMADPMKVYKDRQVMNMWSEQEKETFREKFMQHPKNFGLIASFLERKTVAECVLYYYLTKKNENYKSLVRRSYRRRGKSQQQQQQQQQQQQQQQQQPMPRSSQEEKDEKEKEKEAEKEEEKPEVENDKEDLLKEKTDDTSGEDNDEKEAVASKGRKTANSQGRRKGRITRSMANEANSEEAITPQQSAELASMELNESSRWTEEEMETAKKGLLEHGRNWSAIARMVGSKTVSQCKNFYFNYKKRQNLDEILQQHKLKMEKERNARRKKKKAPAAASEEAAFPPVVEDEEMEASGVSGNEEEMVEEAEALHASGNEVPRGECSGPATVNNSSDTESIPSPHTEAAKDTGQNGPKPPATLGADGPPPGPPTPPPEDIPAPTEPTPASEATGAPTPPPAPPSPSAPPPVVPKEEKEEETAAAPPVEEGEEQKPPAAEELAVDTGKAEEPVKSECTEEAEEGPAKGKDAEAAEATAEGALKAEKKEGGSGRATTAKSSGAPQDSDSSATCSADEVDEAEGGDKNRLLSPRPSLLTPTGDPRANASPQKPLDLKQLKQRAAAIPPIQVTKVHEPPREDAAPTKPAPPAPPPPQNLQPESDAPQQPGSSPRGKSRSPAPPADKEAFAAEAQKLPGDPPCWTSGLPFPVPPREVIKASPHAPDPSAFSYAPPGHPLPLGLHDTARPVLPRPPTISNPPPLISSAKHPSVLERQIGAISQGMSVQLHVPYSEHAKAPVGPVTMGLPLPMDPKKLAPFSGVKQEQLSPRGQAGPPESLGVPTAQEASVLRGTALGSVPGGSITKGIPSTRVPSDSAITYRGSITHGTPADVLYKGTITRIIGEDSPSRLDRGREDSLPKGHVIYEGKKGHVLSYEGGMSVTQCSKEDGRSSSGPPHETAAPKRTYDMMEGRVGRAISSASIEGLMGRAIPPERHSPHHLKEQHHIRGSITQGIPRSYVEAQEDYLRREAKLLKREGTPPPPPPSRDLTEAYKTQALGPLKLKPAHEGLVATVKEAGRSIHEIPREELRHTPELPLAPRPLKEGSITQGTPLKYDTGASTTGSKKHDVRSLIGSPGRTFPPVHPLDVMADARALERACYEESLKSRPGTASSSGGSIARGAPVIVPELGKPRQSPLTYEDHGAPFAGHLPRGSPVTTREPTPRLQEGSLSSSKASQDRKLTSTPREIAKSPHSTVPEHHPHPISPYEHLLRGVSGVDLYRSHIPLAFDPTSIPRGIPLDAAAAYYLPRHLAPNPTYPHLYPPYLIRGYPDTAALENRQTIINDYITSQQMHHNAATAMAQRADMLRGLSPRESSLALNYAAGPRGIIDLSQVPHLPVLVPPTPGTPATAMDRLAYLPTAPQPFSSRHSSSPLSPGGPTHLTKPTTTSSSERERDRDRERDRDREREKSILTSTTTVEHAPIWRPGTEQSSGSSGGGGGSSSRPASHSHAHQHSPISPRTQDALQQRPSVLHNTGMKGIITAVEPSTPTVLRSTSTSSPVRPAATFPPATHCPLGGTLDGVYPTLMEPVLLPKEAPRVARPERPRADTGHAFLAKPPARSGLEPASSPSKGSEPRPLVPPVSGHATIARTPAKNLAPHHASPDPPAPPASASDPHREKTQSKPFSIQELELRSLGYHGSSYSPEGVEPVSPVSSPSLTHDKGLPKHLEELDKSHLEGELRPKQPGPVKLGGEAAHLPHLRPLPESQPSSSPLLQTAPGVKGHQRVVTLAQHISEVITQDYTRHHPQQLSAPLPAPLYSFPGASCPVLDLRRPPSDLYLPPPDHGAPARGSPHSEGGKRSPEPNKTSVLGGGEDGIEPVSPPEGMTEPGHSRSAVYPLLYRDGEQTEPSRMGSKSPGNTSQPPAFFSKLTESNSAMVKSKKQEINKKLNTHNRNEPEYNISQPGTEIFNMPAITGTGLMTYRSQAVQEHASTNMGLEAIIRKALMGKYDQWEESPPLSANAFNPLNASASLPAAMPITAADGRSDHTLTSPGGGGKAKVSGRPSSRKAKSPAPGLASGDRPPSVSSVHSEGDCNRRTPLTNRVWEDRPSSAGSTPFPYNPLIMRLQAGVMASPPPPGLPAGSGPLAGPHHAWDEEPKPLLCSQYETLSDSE", "test": "Activity on Boc-L-Lys(ε-trifluoroacetyl)-MCA compared with Biomol standard substrate, HDAC3", "type": "biochemical", "conditions": "HDAC3, FIG. 5", "from_the_text": "(§1) The activities measured on Boc-L-Lys(ε-trifluoroacetyl)-MCA were compared with activities on the Biomol standard substrate (not shown)."}, "HDAC4-CD [2]": {"biological_target": "T1, HDAC4-CD (Homo sapiens, UniProt P56524)", "T1 construct": "The HDAC4 C-terminal region from T-653 to L-1084; 6xHis; made in house; host or cells: E. coli BL21 Star (DE3)", "T1 sequence (P56524 653-1084)": "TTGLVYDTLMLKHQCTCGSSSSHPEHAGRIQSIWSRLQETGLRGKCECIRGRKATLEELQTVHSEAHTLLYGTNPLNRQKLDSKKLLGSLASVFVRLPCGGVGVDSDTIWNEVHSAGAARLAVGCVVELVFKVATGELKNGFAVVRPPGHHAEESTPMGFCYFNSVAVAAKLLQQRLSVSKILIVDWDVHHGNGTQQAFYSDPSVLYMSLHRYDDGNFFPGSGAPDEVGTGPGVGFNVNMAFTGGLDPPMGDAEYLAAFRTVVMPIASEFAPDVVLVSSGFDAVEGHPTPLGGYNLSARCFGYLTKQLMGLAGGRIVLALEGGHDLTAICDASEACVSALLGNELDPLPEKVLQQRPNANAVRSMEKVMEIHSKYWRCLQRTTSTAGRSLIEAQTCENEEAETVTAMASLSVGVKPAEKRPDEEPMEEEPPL", "test": "Activity on Boc-L-Lys(ε-trifluoroacetyl)-MCA compared with Biomol standard substrate, HDAC4-CD", "type": "biochemical", "conditions": "FIG. 5", "from_the_text": "as §1"}, "HDAC6": {"biological_target": "T2, HDAC6 (Homo sapiens, UniProt Q9UBN7)", "T2 sequence (Q9UBN7 1-1215)": "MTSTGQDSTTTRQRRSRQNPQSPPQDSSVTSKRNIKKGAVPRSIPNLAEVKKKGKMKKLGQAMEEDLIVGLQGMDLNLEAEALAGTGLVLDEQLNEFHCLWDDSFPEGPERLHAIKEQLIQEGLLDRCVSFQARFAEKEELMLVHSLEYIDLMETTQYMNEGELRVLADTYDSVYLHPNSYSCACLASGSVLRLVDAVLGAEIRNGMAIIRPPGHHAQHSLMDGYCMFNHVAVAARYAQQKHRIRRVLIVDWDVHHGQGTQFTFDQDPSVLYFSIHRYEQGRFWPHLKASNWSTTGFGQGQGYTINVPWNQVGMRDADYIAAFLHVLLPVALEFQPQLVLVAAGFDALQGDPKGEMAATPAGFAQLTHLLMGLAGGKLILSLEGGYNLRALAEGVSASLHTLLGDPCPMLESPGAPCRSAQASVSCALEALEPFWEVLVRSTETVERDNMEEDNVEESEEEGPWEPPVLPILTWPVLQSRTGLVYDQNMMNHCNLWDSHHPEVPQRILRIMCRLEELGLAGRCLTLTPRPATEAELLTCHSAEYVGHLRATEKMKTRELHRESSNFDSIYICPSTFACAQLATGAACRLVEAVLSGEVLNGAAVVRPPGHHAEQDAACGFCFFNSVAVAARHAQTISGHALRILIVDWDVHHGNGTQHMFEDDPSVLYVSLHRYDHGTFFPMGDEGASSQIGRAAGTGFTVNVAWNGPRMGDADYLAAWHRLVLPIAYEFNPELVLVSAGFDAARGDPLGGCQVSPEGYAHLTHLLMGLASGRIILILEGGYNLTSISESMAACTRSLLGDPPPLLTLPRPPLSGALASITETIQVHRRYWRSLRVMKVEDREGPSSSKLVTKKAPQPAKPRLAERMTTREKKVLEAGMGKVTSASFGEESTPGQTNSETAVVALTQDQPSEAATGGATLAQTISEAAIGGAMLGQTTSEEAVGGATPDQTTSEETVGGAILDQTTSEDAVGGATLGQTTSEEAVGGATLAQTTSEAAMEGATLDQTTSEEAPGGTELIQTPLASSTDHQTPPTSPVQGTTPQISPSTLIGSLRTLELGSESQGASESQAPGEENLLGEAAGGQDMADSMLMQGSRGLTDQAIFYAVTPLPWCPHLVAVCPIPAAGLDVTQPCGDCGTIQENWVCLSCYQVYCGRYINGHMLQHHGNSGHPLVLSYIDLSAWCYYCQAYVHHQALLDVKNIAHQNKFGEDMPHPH", "test": "Activity on Boc-L-Lys(ε-trifluoroacetyl)-MCA compared with Biomol standard substrate, HDAC6", "type": "biochemical", "conditions": "HDAC6, FIG. 5", "from_the_text": "as §1"}, "HDAC8 [3]": {"biological_target": "T3, HDAC8 (Homo sapiens, UniProt Q9BY41)", "T3 sequence (Q9BY41 1-377)": "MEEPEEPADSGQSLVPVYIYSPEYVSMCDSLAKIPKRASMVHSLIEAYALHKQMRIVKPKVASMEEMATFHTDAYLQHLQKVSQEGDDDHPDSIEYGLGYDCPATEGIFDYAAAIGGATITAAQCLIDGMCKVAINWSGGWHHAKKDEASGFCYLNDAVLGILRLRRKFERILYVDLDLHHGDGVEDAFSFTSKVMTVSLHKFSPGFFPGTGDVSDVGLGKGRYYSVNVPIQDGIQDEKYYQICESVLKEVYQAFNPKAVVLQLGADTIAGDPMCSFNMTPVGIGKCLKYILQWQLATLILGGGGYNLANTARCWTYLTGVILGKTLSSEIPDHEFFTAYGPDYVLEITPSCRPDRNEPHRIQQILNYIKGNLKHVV", "test": "Activity on Boc-L-Lys(ε-trifluoroacetyl)-MCA compared with Biomol standard substrate, HDAC8", "type": "biochemical", "conditions": "HDAC8, FIG. 5", "from_the_text": "as §1"}, "HDAC8 [4]": {"biological_target": "T3, HDAC8", "conditions": "substrate of (recombinant) human HDAC8; cited from earlier work"}, "HDAC1": {"biological_target": "HDAC1 (Homo sapiens, UniProt Q13547)", "sequence (Q13547 whole entry)": "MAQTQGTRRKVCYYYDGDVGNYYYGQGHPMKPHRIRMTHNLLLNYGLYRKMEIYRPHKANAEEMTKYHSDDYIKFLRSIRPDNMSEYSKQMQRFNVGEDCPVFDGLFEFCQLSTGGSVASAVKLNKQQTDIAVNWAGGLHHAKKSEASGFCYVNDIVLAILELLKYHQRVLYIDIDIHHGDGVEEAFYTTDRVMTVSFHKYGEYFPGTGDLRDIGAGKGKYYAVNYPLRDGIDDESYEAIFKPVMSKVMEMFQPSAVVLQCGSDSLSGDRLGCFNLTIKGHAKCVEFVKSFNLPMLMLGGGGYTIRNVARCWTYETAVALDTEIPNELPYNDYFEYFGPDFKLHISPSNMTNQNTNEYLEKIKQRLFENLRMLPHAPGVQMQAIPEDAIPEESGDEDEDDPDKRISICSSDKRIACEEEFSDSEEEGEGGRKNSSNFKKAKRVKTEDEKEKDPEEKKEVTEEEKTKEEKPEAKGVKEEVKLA", "test": "Activity on Boc-L-Lys(ε-trifluoroacetyl)-MCA compared with Biomol standard substrate, HDAC1", "type": "biochemical", "conditions": "HDAC1, FIG. 5", "from_the_text": "as §1"}, "HDAC4-FLAG [5]": {"biological_target": "T4, HDAC4-FLAG (Homo sapiens, UniProt P56524)", "T4 construct": "the full length HDAC4protein (HDAC4-FLAG) was also analysed; FLAG (C); made in house", "T4 sequence (P56524 whole entry)": "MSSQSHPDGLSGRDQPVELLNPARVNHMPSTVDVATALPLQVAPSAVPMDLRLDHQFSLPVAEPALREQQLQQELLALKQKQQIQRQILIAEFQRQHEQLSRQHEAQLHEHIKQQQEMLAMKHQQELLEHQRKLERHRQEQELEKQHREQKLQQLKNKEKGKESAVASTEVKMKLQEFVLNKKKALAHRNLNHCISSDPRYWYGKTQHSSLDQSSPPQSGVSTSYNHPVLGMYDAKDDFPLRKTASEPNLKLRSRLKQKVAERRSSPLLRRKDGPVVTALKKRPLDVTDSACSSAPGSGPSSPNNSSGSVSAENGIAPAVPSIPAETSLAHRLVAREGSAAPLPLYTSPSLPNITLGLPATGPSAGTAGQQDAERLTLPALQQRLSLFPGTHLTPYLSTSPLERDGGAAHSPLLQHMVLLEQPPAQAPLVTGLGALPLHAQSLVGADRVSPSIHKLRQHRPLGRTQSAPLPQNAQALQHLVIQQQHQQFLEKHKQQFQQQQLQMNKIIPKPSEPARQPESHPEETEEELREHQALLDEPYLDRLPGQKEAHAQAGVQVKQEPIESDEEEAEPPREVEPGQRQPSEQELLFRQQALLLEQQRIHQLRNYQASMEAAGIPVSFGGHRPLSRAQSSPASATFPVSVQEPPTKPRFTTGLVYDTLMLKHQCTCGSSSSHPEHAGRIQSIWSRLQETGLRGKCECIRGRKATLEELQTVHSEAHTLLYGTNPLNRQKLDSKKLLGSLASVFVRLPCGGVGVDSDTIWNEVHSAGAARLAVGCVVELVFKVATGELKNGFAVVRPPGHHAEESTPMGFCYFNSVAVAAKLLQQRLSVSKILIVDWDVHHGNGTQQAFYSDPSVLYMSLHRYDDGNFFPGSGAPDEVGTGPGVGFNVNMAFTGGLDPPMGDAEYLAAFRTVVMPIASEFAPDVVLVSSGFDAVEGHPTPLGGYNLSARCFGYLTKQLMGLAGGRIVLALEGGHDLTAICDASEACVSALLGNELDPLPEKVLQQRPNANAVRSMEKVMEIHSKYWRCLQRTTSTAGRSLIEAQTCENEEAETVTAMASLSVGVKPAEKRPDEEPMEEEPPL", "type": "binding", "conditions": "cross-linking assay"}, "HDAC4-CD [6]": {"biological_target": "T1, HDAC4-CD", "test": "Inhibition of HDAC4-CD activity on Lys-Trifluoro substrate", "type": "biochemical", "conditions": "HDAC4-CD 0.5 nM, FIG. 6"}},
  "data": [
    {"smiles": "Nc1ccccc1NC(=O)c1ccc(CNC(=O)OCc2cccnc2)cc1", "note": "[MS27-275]", "values": [
      {"measurement": "inhibition constants", "setting": "HDAC4-FLAG [1]", "value": "good inhibition constants"}
    ]},
    {"smiles": "CC(=O)NCCCC[C@H](NC(=O)OC(C)(C)C)C(=O)Nc1ccc2c(C)cc(=O)oc2c1", "note": "[Boc-L-Lys(ε-acetyl)-MCA, reference compound]", "values": [
      {"measurement": "Km", "setting": "HDAC from rat liver; substrate of HDAC from rat liver (mixture of HDAC1, 2 and 3)", "value": 3.7, "unit": "µM"}
    ]},
    {"smiles": "Cc1cc(=O)oc2ccc(NC(=O)[C@H](CCCCNC(=O)C(F)(F)F)NC(=O)OC(C)(C)C)cc12", "note": "[Boc-L-Lys(ε-trifluoroacetyl)-MCA, tert-Butyl [(1S)-5-(trifluoroacetylamino)-1-[[(4-methyl-2-oxo-2H-1-benzopyran-6-yl)amino]carbonyl]pentyl]-carbamic Acid Ester]", "values": [
      {"measurement": "enzyme activity on substrate compared with Biomol standard substrate", "setting": "HDAC3", "value": "works with the same efficiency"},
      {"measurement": "enzyme activity on substrate compared with Biomol standard substrate", "setting": "HDAC4-CD [2]", "value": "work better"},
      {"measurement": "enzyme activity on substrate compared with Biomol standard substrate", "setting": "HDAC6", "value": "did not work"},
      {"measurement": "conversion of substrate by rat liver HDAC", "setting": "HDAC from rat liver; rat liver HDAC", "value": "did not convert"},
      {"measurement": "enzyme activity on substrate compared with Biomol standard substrate", "setting": "HDAC8 [3]", "value": "work better"},
      {"measurement": "Km", "setting": "HDAC8 [4]", "value": 247, "unit": "µM"},
      {"measurement": "enzyme activity on substrate compared with Biomol standard substrate", "setting": "HDAC1", "value": "did not work"}
    ]},
    {"smiles": "O=C(/C=C/c1ccc(CN(CCO)CCc2c[nH]c3ccccc23)cc1)NO", "note": "[LAQ824]", "values": [
      {"measurement": "binding to HDAC4-FLAG", "setting": "HDAC4-FLAG [5]", "value": "able to significantly and specifically bind"},
      {"measurement": "inhibition of HDAC4-CD activity on Lys-Trifluoro substrate", "setting": "HDAC4-CD [6]", "value": "inhibited"}
    ]}
  ]
}
